Results as given in ChEMBL document CHEMBL1201862, “PubChem BioAssay data set” (2004).
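Five compound concentrations were applied to cells in 96-well plates for 48 hours; endpoints were derived by simple linear interpolation of the resulting dose-response curve. GI50 marks 50% less growth.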 Active and inactive are the calls of the source. Rule as the data show it: active = GI50 up to about 1.1 µM and inactive = higher.

What was measured:
Assay in all cases: DTP human tumour cell line panel, 48 h
NCI/ADR-RES = test system: NCI/ADR-RES
SW-620 = test system: SW-620
HOP-18 = test system: HOP-18
SF-295 = test system: SF-295
KM-20L2 = test system: KM-20L2
NCI-H460 = test system: NCI-H460
HOP-62 = test system: HOP-62
NCI-H23 = test system: NCI-H23
SK-MEL-5 = test system: SK-MEL-5
OVCAR-8 = test system: OVCAR-8
U-251 = test system: U-251
Malme-3M = test system: Malme-3M
SF-268 = test system: SF-268
SF-539 = test system: SF-539
IGROV-1 = test system: IGROV-1
SK-OV-3 = test system: SK-OV-3
EKVX = test system: EKVX
TK-10 = test system: TK-10
SR = test system: SR
K562 = test system: K562

SMILES: O=c1ccn([C@@H]2C=C(CO)[C@@H](O)[C@H]2O)c(=O)[nH]1
- GI50 (NCI/ADR-RES): > 625 µM (inactive)
- GI50 (SW-620): > 625 µM (inactive)
- GI50 (HOP-18): > 625 µM (inactive)
- GI50 (SF-295): > 625 µM (inactive)
- GI50 (KM-20L2): > 625 µM (inactive)
- GI50 (NCI-H460): > 625 µM (inactive)
- GI50 (HOP-62): > 625 µM (inactive)
- GI50 (NCI-H23): > 625 µM (inactive)
- GI50 (SK-MEL-5): > 625 µM (inactive)
- GI50 (OVCAR-8): > 625 µM (inactive)
- GI50 (U-251): > 625 µM (inactive)
- GI50 (Malme-3M): > 625 µM (inactive)
- GI50 (SF-268): > 625 µM (inactive)
- GI50 (SF-539): > 625 µM (inactive)
- GI50 (IGROV-1): > 625 µM (inactive)
- GI50 (SK-OV-3): > 625 µM (inactive)

SMILES: COc1ccc(/C=c2\sc3n(c2=O)CCN=3)cc1
- GI50 (EKVX): > 100 µM (inactive)
- GI50 (SW-620): > 100 µM (inactive)
- GI50 (HOP-18): 88.3 µM (inactive)
- GI50 (SF-295): > 100 µM (inactive)
- GI50 (KM-20L2): > 100 µM (inactive)
- GI50 (NCI-H460): > 100 µM (inactive)
- GI50 (HOP-62): > 100 µM (inactive)
- GI50 (NCI-H23): > 100 µM (inactive)
- GI50 (SK-MEL-5): 80 µM (inactive)
- GI50 (OVCAR-8): > 100 µM (inactive)
- GI50 (U-251): > 100 µM (inactive)
- GI50 (TK-10): > 100 µM (inactive)
- GI50 (Malme-3M): 39.1 µM (inactive)
- GI50 (SF-539): > 100 µM (inactive)
- GI50 (SR): > 100 µM (inactive)
- GI50 (SK-OV-3): > 100 µM (inactive)
- GI50 (K562): 43.7 µM (inactive)

SMILES: NCCCN(CCCN)CCN(CCN(CCCN)CCCN)CCN(CCCN)CCCN
- GI50 (NCI/ADR-RES): > 100 µM (inactive)
- GI50 (SW-620): > 100 µM (inactive)
- GI50 (SF-295): 55.6 µM (inactive)
- GI50 (NCI-H460): > 100 µM (inactive)
- GI50 (HOP-62): > 100 µM (inactive)
- GI50 (NCI-H23): > 100 µM (inactive)
- GI50 (SK-MEL-5): > 100 µM (inactive)
- GI50 (OVCAR-8): 44.6 µM (inactive)
- GI50 (U-251): 66.1 µM (inactive)
- GI50 (TK-10): > 100 µM (inactive)
- GI50 (IGROV-1): > 100 µM (inactive)
- GI50 (SR): > 100 µM (inactive)
- GI50 (SK-OV-3): 48.4 µM (inactive)
- GI50 (K562): > 100 µM (inactive)

SMILES: c1ccc(-n2cnnc2-c2nsc3ccccc23)cc1
- GI50 (EKVX): > 100 µM (inactive)
- GI50 (SW-620): > 100 µM (inactive)
- GI50 (HOP-18): 9.71 µM (inactive)
- GI50 (KM-20L2): > 100 µM (inactive)
- GI50 (NCI-H460): > 100 µM (inactive)
- GI50 (HOP-62): > 100 µM (inactive)
- GI50 (NCI-H23): > 100 µM (inactive)
- GI50 (SK-MEL-5): > 100 µM (inactive)
- GI50 (OVCAR-8): > 100 µM (inactive)
- GI50 (U-251): > 100 µM (inactive)
- GI50 (TK-10): > 100 µM (inactive)
- GI50 (SF-268): > 100 µM (inactive)
- GI50 (SF-539): > 100 µM (inactive)
- GI50 (IGROV-1): > 100 µM (inactive)
- GI50 (K562): > 100 µM (inactive)

SMILES: C[C@H]1O[C@@H](O[C@H]2[C@@H](O)C[C@H](O[C@H]3[C@@H](O)C[C@H](O[C@H]4CC[C@@]5(C)[C@H](CC[C@@H]6[C@@H]5CC[C@]5(C)[C@@H](C7=CC(=O)OC7)CC[C@]65O)C4)O[C@@H]3C)O[C@@H]2C)C[C@H](O)[C@@H]1O [DIGITOXIN]
- GI50 (EKVX): 0.0286 µM (active)
- GI50 (NCI/ADR-RES): 0.0283 µM (active)
- GI50 (SW-620): 0.0296 µM (active)
- GI50 (SF-295): 0.0258 µM (active)
- GI50 (HOP-62): < 0.0199 µM (active)
- GI50 (NCI-H23): 0.0185 µM (active)
- GI50 (SK-MEL-5): < 0.0212 µM (active)
- GI50 (TK-10): 0.0252 µM (active)
- GI50 (Malme-3M): 0.028 µM (active)
- GI50 (SF-268): < 0.0241 µM (active)
- GI50 (SF-539): < 0.0123 µM (active)
- GI50 (IGROV-1): 0.0365 µM (active)
- GI50 (SR): 0.0338 µM (active)
- GI50 (SK-OV-3): 0.045 µM (active)
- GI50 (K562): < 0.0246 µM (active)
